# Reference: patent US12161634B2, “Pyruvate kinase R (PKR) activating compositions” (Novo Nordisk Health Care AG, priority 2020, dated 2024)
# Columns and labels:
# [1] = Dynamic vapor sorption (DVS); type: physicochemical
# Protocol: Dynamic Vapor Sorption (DVS) was measured with a Surface Measurement System (SMS) DVS Intrinsic.
# [2] = Polymorph screening (solid form by XRPD); type: physicochemical
# Protocol: Polymorph screening experiments were performed using a series of crystallization and solid transition methods.
# Solid vapor diffusion experiments were conducted using 13 different solvents. Approximately 15 mg of Compound 1 (Type A) was weighed into a 4-mL vial, which was placed into a 20-mL vial with 3 mL of volatile solvent. The 20-mL vial was sealed with a cap and kept at RT for 7 days, allowing solvent vapor to interact with the sample.
# Slurry experiments were conducted […] in different solvent systems. About 15 mg of Compound 1 (Type A) was suspended in 0.3 mL of solvent in a 2-mL glass vial. After the suspension was stirred magnetically for 7 days at 4° C., RT or 50° C., the remaining solids were isolated for XRPD analysis (Method A).
# Approximately 15 mg of Compound 1 (Type A) was dissolved in an appropriate solvent to obtain a clear solution in a 4-mL vial. This solution was then placed into a 20-mL vial with 3 mL of anti-solvent. The 20-mL vial was sealed with a cap and kept at RT, allowing sufficient time for organic vapor to interact with the solution. After 7 days, solids were isolated for XRPD analysis (Method A).
# Compound 1 (Type A) was weighed into a 3 mL glass vial with the addition of the corresponding solvent or solvent mixture. After being vortexed and ultrasonically shaken, the suspension was filtered, and the filtrate was transferred to a clean 4 mL shell vial. A small amount of Compound 1 (Type A) was added as a seed crystal. Subsequently, the shell vial was sealed with a polyethylene plug with one pinhole and enclosed in a 20 mL glass vial containing 3 mL of the anti-solvent at room temperature for liquid vapor diffusion. The solid forms resulting from the experiments were characterized by XRPD analysis (Method C).
# Slow evaporation experiments were performed under 4 conditions. Briefly, about 15 mg of Compound 1 (Type A) was mixed with 1.0-2.5 mL of solvent in a 4-mL glass vial. If the solids were not dissolved completely, suspensions were filtered using a PTFE membrane (pore size of 0.2 μm) and the filtrates were used for the follow-up steps. The visually clear solutions were subjected to evaporation at RT with vials sealed by Parafilm® (3-5 pinholes).
# Compound 1 (Type A) was weighed into a 3 mL glass vial with the addition of the corresponding solvent or solvent mixture. After being vortexed and ultrasonically shaken, the suspension was filtered, and the filtrate was transferred to a clean 4 mL shell vial. A small amount of Compound 1 (Type A) was added as a seed crystal. Subsequently, the shell vial was sealed with a polyethylene plug with one pinhole and placed in a fume hood at room temperature for slow evaporation. The solid forms resulting from the experiments were characterized by XRPD analysis (Method C).
# A total of 8 anti-solvent addition experiments were carried out. About 15 mg of Compound 1 (Type A) was dissolved in 0.2-4.0 mL of solvent to obtain a clear solution. The solution was magnetically stirred followed by addition of 0.2 mL anti-solvent per step until precipitate appeared or the total amount of anti-solvent reached 15.0 mL. The obtained precipitate was isolated for XRPD analysis (Method A).
# A total of 2 reverse anti-solvent addition experiments were carried out. About 15 mg of Compound 1 (type A) was dissolved in 0.2 mL solvent to obtain a clear solution. The solution was added into 2 mL anti-solvent. The obtained precipitate was isolated for XRPD analysis (Method A). Results summarized in Table 16 indicated Type A or a mixture of Type A and amorphous material were generated.
# Compound 1 (Type A) was weighed into a 3 mL glass vial with the addition of the corresponding solvent or solvent mixture. After being vortexed and ultrasonically shaken to accelerate dissolution, the suspension was placed in a biochemical incubator and equilibrated at 50° C. for 30 minutes. […]
compound,measurement,setting,value
"O=C([C@H](CO)c1ccccc1)N1CC2=C(C1)CN(S(=O)(=O)c1cnc3c(c1)OCCO3)C2 [Type A, (S)-1-(5-[2H,3H-[1,4]dioxino[2,3-b]pyridine-7-sulfonyl]-1H,2H,3H,4H,5H,6H-pyrrolo[3,4-c]pyrrol-2-yl)-3-hydroxy-2-phenylpropan-1-one]",hygroscopicity,[1]; DVS at RT,hygroscopic
same,water uptake from 40% RH to 80% RH,"[1]; DVS, RT",1.0%
same,water uptake up to 40% RH,"[1]; DVS, up to 40% RH (ambient condition), RT",3.4%
same,form change before and after DVS test,"[1]; RT, determined by XRPD",No form change
same,Solid Form,"[2]; liquid vapor diffusion RT 7 days, solvent 1,4-Dioxane, anti-solvent EtOAc",Type A
same,Solid Form,"[2]; liquid vapor diffusion RT 7 days, solvent 1,4-Dioxane, anti-solvent MTBE",Type A
same,Solid Form,"[2]; liquid vapor diffusion RT 7 days, solvent 1,4-Dioxane, anti-solvent MeOH",Type B
same,Solid Form,"[2]; liquid vapor diffusion RT 7 days, solvent 1,4-Dioxane, anti-solvent Toluene",Type A
same,Solid Form,"[2]; liquid vapor diffusion RT 7 days, solvent 1,4-Dioxane, anti-solvent n-Heptane",Type F
same,Solid Form,"[2]; liquid vapor diffusion RT 7 days, solvent Acetone, anti-solvent H2O",Type B
same,Solid Form,"[2]; liquid vapor diffusion RT 7 days, solvent Acetone, anti-solvent IPA",Type A
same,Solid Form,"[2]; liquid vapor diffusion RT 7 days, solvent Acetone, anti-solvent MIBK",Type A
same,Solid Form,"[2]; liquid vapor diffusion RT 7 days, solvent CHCl3, anti-solvent 2-MeTHF",Type A
same,Solid Form,"[2]; liquid vapor diffusion RT 7 days, solvent CHCl3, anti-solvent EtOH",Type A
same,Solid Form,"[2]; liquid vapor diffusion RT 7 days, solvent CHCl3, anti-solvent IPAc",Type A
same,Solid Form,"[2]; liquid vapor diffusion RT 7 days, solvent THF, anti-solvent EtOAc",Type A
same,Solid Form,"[2]; liquid vapor diffusion RT 7 days, solvent THF, anti-solvent MeOH",Type A
same,Solid Form,"[2]; liquid vapor diffusion, seeded, RT, 3.0 mg in 0.5 mL MeOH, anti-solvent MTBE",Type B
same,Solid Form,"[2]; liquid vapor diffusion, seeded, RT, 4.9 mg in 0.5 mL Acetone, anti-solvent MTBE",Type A
same,Solid Form,"[2]; liquid vapor diffusion, seeded, RT, 10.0 mg in 0.5 mL ACN, anti-solvent MTBE",Type B
same,Solid Form,"[2]; liquid vapor diffusion, seeded, RT, 10.1 mg in 0.5 mL ACN, anti-solvent H2O",Type B
same,Solid Form,"[2]; liquid vapor diffusion, seeded, RT, 10.4 mg in 0.5 mL THF, anti-solvent n-pentane",Type D
same,Solid Form,"[2]; liquid vapor diffusion, seeded, RT, 10.8 mg in 0.1 mL DMSO, anti-solvent IPA",Type A
same,Solid Form,"[2]; liquid vapor diffusion, seeded, RT, 10.9 mg in 0.1 mL DMF, anti-solvent IPAc",Type I
same,Solid Form,"[2]; liquid vapor diffusion, seeded, RT, 11.5 mg in 0.5 mL THF, anti-solvent MeOH",Type D
same,Solid Form,"[2]; liquid vapor diffusion, seeded, RT, 12.1 mg in 0.5 mL THF, anti-solvent EtOAc",Type M
same,Solid Form,"[2]; liquid vapor diffusion, seeded, RT, 17.6 mg in 0.5 mL 1,4-dioxane, anti-solvent n-heptane",Type A
same,Solid Form,"[2]; liquid vapor diffusion, seeded, RT, 30.8 mg in 0.2 mL NMP, anti-solvent MTBE",Type J
same,Solid Form,"[2]; liquid vapor diffusion, seeded, RT, 31.9 mg in 0.2 mL DMSO, anti-solvent H2O",Type A
same,Solid Form,"[2]; liquid vapor diffusion, seeded, RT, 32.1 mg in 0.2 mL DMF, anti-solvent Toluene",Type H
same,Solid Form,"[2]; liquid vapor diffusion, seeded, RT, 34.3 mg in 0.3 mL CHCl3, anti-solvent n-pentane",Type A
same,Solid Form,"[2]; slow cooling 50° C. to 5° C., 15.4 mg in 1.5 mL 2-MeTHF",Type K
same,Solid Form,"[2]; slow cooling 50° C. to 5° C., 15.7 mg in 1.5 mL EtOH",Type A
same,Solid Form,"[2]; slow cooling 50° C. to 5° C., 20.3 mg in 1.5 mL EtOAc",Type B
same,Solid Form,"[2]; slow cooling 50° C. to 5° C., 20.5 mg in 1.5 mL MeOH",Type B
same,Solid Form,"[2]; slow cooling 50° C. to 5° C., 39.7 mg in 1.0 mL THF/H2O (1:1 v/v), then kept at 5° C. for 22 days",Type L
same,Solid Form,"[2]; slow cooling 50° C. to 5° C., 40.3 mg in 0.8 mL ACN/H2O (2:1 v/v)",Type B
same,Solid Form,"[2]; slow cooling 50° C. to 5° C., 40.3 mg in 1.0 mL Acetone/n-heptane (3:1 v/v)",Type A
same,Solid Form,"[2]; slow cooling 50° C. to 5° C., 40.4 mg in 1.0 mL 1,4-dioxane/H2O (1:1 v/v)",Type B
same,Solid Form,"[2]; slow cooling 50° C. to 5° C., 40.6 mg in 1.0 mL Acetone/H2O (2:1 v/v)",Type B
same,Solid Form,"[2]; slow evaporation, seeded, RT, 3.0 mg in 1.0 mL MeOH",Type B
same,Solid Form,"[2]; slow evaporation, seeded, RT, 3.2 mg in 0.5 mL EtOAc/2-MeTHF (1:1 v/v)",Type B
same,Solid Form,"[2]; slow evaporation, seeded, RT, 3.2 mg in 1.0 mL EtOAc",Type B
same,Solid Form,"[2]; slow evaporation, seeded, RT, 4.5 mg in 0.5 mL Acetone/EtOH (1:1 v/v)",Type A
same,Solid Form,"[2]; slow evaporation, seeded, RT, 4.6 mg in 0.5 mL Acetone",Type A
same,Solid Form,"[2]; slow evaporation, seeded, RT, 4.7 mg in 0.5 mL Acetone/EtOAc (1:1 v/v)",Type A
same,Solid Form,"[2]; slow evaporation, seeded, RT, 5.0 mg in 0.5 mL ACN/MIBK (1:1 v/v)",Type A
same,Solid Form,"[2]; slow evaporation, seeded, RT, 5.2 mg in 0.5 mL MeOH/Acetone (1:1 v/v)",Type B
same,Solid Form,"[2]; slow evaporation, seeded, RT, 7.3 mg in 0.5 mL DCM/IPAc (1:1 v/v)",Type A
same,Solid Form,"[2]; slow evaporation, seeded, RT, 9.6 mg in 0.5 mL THF/H2O (5:1 v/v)",Type B
same,Solid Form,"[2]; slow evaporation, seeded, RT, 9.8 mg in 0.5 mL ACN/H2O (5:1 v/v)",Type B
same,Solid Form,"[2]; slow evaporation, seeded, RT, 10.0 mg in 0.5 mL ACN",Type B
same,Solid Form,"[2]; slow evaporation, seeded, RT, 10.1 mg in 0.5 mL THF",Type D
same,Solid Form,"[2]; slow evaporation, seeded, RT, 10.7 mg in 0.5 mL THF/EtOH (1:1 v/v)",Type A
same,Solid Form,"[2]; slow evaporation, seeded, RT, 10.8 mg in 0.5 mL DCM/n-heptane (1:1 v/v)",Type A
same,Solid Form,"[2]; slow evaporation, seeded, RT, 11.1 mg in 0.5 mL ACN/EtOAc (1:1 v/v)",Type A
same,Solid Form,"[2]; slow evaporation, seeded, RT, 13.0 mg in 0.5 mL Acetone/H2O (5:1 v/v)",Type B
same,Solid Form,"[2]; slow evaporation, seeded, RT, 13.8 mg in 0.5 mL ACN/EtOH (1:1 v/v)",Type A
same,Solid Form,"[2]; slow evaporation, seeded, RT, 14.4 mg in 0.5 mL ACN/2-MeTHF (1:1 v/v)",Type A
same,Solid Form,"[2]; slow evaporation, seeded, RT, 17.3 mg in 0.5 mL ACN/IPA (4:1 v/v)",Type A
same,Solid Form,"[2]; slow evaporation, seeded, RT, 22.7 mg in 0.5 mL CHCl3/IPA (1:1 v/v)",Type A
same,Solid Form,"[2]; slow evaporation, seeded, RT, 22.9 mg in 0.5 mL CHCl3/toluene (1:1 v/v)",Type A
same,Solid Form,"[2]; slow evaporation, seeded, RT, 27.7 mg in 0.5 mL ACN/n-heptane (10:1 v/v)",Type B
same,Solid Form,"[2]; slow evaporation, seeded, RT, 32.9 mg in 0.5 mL 1,4-dioxane/H2O (4:1 v/v)",Gel
same,Solid Form,"[2]; slurry of Type A 7 days, 1,4-Dioxane/MeOH (v/v, 1:1), 50° C.",Type A
same,Solid Form,"[2]; slurry of Type A 7 days, 1,4-Dioxane/Toluene (v/v, 1:1), 50° C.",Type A
same,Solid Form,"[2]; slurry of Type A 7 days, 1,4-Dioxane, 50° C.",Type A
same,Solid Form,"[2]; slurry of Type A 7 days, 1,4-Dioxane, RT",Type C
same,Solid Form,"[2]; slurry of Type A 7 days, 2-MeTHF, 50° C.",Type A
same,Solid Form,"[2]; slurry of Type A 7 days, ACN/IPA (v/v, 1:3), 50° C.",Type A
same,Solid Form,"[2]; slurry of Type A 7 days, ACN, 4° C.",Type A
same,Solid Form,"[2]; slurry of Type A 7 days, Acetone/H2O (v/v, 1:3), 50° C.",Type B
same,Solid Form,"[2]; slurry of Type A 7 days, Acetone/IPAc (v/v, 1:3), 50° C.",Type A
same,Solid Form,"[2]; slurry of Type A 7 days, Acetone, RT",Type A
same,Solid Form,"[2]; slurry of Type A 7 days, CHCl3/EtOAc (v/v, 1:3), 50° C.",Type A
same,Solid Form,"[2]; slurry of Type A 7 days, CHCl3/MeOH (v/v, 1:3), 50° C.",Type A
same,Solid Form,"[2]; slurry of Type A 7 days, CHCl3/Toluene (1/3), 4° C.",Type B + Type A
same,Solid Form,"[2]; slurry of Type A 7 days, DCM/EtOH (v/v, 1:3), 50° C.",Type A
same,Solid Form,"[2]; slurry of Type A 7 days, DCM/n-Heptane (1/3), 4° C.",Type A
same,Solid Form,"[2]; slurry of Type A 7 days, DMSO/H2O (1/9), RT",Type B
same,Solid Form,"[2]; slurry of Type A 7 days, EtOAc, 50° C.",Type A
same,Solid Form,"[2]; slurry of Type A 7 days, EtOH, 50° C.",Type A
same,Solid Form,"[2]; slurry of Type A 7 days, H2O, 50° C.",Type B
same,Solid Form,"[2]; slurry of Type A 7 days, IPA, 50° C.",Type A
same,Solid Form,"[2]; slurry of Type A 7 days, IPAc, 50° C.",Type A
same,Solid Form,"[2]; slurry of Type A 7 days, MIBK, 50° C.",Type A
same,Solid Form,"[2]; slurry of Type A 7 days, MTBE, 50° C.",Type A
same,Solid Form,"[2]; slurry of Type A 7 days, MeOH, 50° C.",Type B
same,Solid Form,"[2]; slurry of Type A 7 days, THF, 4° C.",Type D
same,Solid Form,"[2]; slurry of Type A 7 days, THF, 50° C.",Type A
same,Solid Form,"[2]; slurry of Type A 7 days, Toluene, 50° C.",Type A
same,Solid Form,"[2]; slurry of Type A 7 days, n-Heptane, 50° C.",Type A
